Test results as given in US11795169B2, “MAP4K4 inhibitors” (IMPERIAL COLLEGE INNOVATIONS LIMITED, priority 2017, dated 2023).
In brackets after ≈: the same amount, converted by molar mass. Read-outs that look alike come from different tables or passages of the source.

Experiments:
[1] = biological target: human MAP4K4 kinase domain (Homo sapiens (Human), UniProt O95819); assay: MAP4K4 kinase activity, CisBio HTRF Transcreener ADP assay; assay type: biochemical; settings: read-out: MAP4K4, IC50
Outline: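 Kinase activity followed by HTRF Transcreener ADP detection: enzyme-generated ADP competes with d2-labelled ADP for Eu3+-cryptate anti-ADP antibody, read ratiometrically at 665/620 nm. IC50 values reported as categories.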

[2] = test system: CorV.4U cardiomyocytes (hiPSC-CMs); assay: Protection of CorV.4U cardiomyocytes from H2O2 or menadione (luminescent cell viability assay, human cardiac troponin assay); assay type: cell-based; settings: for EC50: Homo sapiens, Cardiomyocyte
From the text: To substantiate the hypothesis that pharmacological inhibition of MAP4K4 would confer resistance to cell death in human cardiomyocytes, cytoprotection was next assessed using hiPSC-CMs.

[3] = test system: H9c2 cardiomyocytes; assay: Protection of H9c2 cardiomyocytes; assay type: cell-based
[4] = test system: mice undergoing experimental myocardial infarction; assay: Experimental myocardial infarction in mice (infarct size, TUNEL staining); assay type: in vivo
Protocol: To test if target validation and compound development in hiPSC-CMs might predict success in a whole-animal context, mice undergoing experimental myocardial infarction were treated with Ex-58 or the vehicle control (FIG. 9). […] Treatment was begun either 20 min prior to ischemia (FIG. 9D), or 1 h after reperfusion injury (FIG. 9E, F), the latter having greater relevance to potential clinical benefits.

[5] = Plasma protein binding (PPB); assay type: in vitro ADME; settings: for fraction unbound: plasma
[6] = Resistance to degradation in hepatocyte microsomes (Heps); assay type: in vitro ADME
[7] = Formulated solubility; assay type: physicochemical
[8] = test system: Cyp; assay: Cyp Inhibition; assay type: in vitro ADME
[9] = biological target: Cyp 2C9 (Homo sapiens (Human), UniProt P11712); assay: Cyp Inhibition: 2C9; assay type: in vitro ADME
Chain of Cyp 2C9 (P11712 whole entry): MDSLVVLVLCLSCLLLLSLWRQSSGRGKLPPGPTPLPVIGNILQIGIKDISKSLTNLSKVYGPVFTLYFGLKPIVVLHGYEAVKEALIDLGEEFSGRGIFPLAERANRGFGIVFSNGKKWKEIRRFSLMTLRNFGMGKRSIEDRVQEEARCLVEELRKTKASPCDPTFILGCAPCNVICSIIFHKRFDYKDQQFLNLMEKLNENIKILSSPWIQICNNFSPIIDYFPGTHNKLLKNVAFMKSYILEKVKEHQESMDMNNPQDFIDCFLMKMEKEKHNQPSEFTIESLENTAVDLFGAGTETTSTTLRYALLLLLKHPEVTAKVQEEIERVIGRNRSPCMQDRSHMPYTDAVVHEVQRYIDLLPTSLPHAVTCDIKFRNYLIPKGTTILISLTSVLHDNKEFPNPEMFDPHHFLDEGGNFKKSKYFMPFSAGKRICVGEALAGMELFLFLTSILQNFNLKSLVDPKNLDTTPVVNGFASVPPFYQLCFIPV

Chain of human MAP4K4 kinase domain (O95819 25-289): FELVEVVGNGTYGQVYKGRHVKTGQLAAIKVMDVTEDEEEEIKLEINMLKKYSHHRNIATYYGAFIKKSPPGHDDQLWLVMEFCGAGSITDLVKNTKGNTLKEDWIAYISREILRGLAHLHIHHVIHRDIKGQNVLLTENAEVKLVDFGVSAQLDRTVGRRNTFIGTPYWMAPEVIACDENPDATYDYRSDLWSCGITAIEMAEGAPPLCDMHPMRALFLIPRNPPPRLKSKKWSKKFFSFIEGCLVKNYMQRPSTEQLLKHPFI

O=c1[nH]cnc2c1c(-c1ccc(OCC3(CO)COC3)cc1)cn2-c1ccccc1 [Ex-54]
IC50 [1]: 4 nM
Protection in human iPSC-derived ventricular cardiomyocytes, H202, efficacy relative to Ex-58 ([2]; H2O2 as death trigger, relative to Ex-58): (0.9)
EC50 ([2]; H2O2 as death trigger, read-out: Protection in human iPSC-derived ventricular cardiomyocytes, EC50 H202): 469 nM
EC50 ([2]; read-out: EC50, protection of human cardiomyocytes): < 1000 nM
Protection in H9c2 cardiomyocytes, efficacy relative to Ex-58 ([3]; H9c2 cardiomyocytes, relative to Ex-58): (0.3)
EC50 ([3]; Rattus norvegicus, H9c2): 199 nM
In vivo efficacy (infarct size/area at risk), reduction ([4]; mice, experimental myocardial infarction): 53% reduction
infarct size in mice (in words) ([4]; mouse, in vivo): Reduction of infarct size
plasma protein binding (PPB) relative to Ex-58 [5]: superior
fraction unbound ([5]; human, read-out: Human PPB % (converted)): 0.03
fraction unbound ([5]; mouse, read-out: Mouse PPB % (converted)): 0.03
resistance to degradation in hepatocyte microsomes (Heps) relative to Ex-58 [6]: superior
Human Heps ([6]; human): 5
Mouse Heps ([6]; mouse): 25
Pig Heps ([6]; pig): 6
Rat Heps ([6]; rat): 3
solubility [7]: 300 µg/mL (≈ 744 µM)
Cyp Inhibition [8]: >10 µM
Cyp Inhibition 2C9 [9]: (2C9 8 μM)
